Legend:
[1] = tested on: Aspergillus flavus; test: MIC/MFC broth microdilution (CLSI); conditions: ATCC204304
Method: (§1) Antifungal susceptibility was determined by broth microdilution according to the CLSI guidelines described in M27-Ed4 ([16]). […] MFC was determined by back-plating drug-treated cultures from MIC broths onto SDA plates. The MFC was defined as the lowest concentration from which no colonies could be cultured.

[2] = tested on: eight fungal species; test: checkerboard interaction with azoles, summary across the eight species; assay type: cell-based
Source text: Synergy between lipophilic FPPS inhibitors and azole antifungals was investigated by determining the fractional inhibitory concentration index (FICI) (Fig. 2; Table S1 Fig. S1) ([17]). […]. Derivatives PLA9 and 11, and PDA9, 11, and 12 antagonized azoles in C. albicans, C. neoformans, and C. deuterogattii, yet were largely synergistic in C. glabrata and S. cerevisiae. […].

[3] = tested on: Aspergillus fumigatus; test: MIC/MFC broth microdilution (CLSI); conditions: ATCC204305
Method: as §1

[4] = tested on: Candida glabrata; test: checkerboard drug interaction (FICI, MICc);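 on all read-outs here: simplified diagonal checkerboard screen pairing antifungals with FPPS inhibitors, FICI calculated under the Loewe additivity model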; assay type: cell-based; conditions: for INH MICc: C. glabrata
Method: (§2) Drug interactions between antifungals and FPPS inhibitors were investigated using a simplified checkerboard diagonal screening method ([45]). […] FICIs were determined according to the Loewe additivity model ([17]).

[5] = tested on: Cryptococcus neoformans; test: MIC/MFC broth microdilution (CLSI);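 further: susceptibility testing followed the CLSI M27-Ed4 broth microdilution document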
Method: as §1

[6] = tested on: Candida albicans; test: checkerboard drug interaction (FICI, MICc);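 on all read-outs here: antifungal plus FPPS inhibitor combinations on Candida albicans tested by a simplified diagonal checkerboard screen, with FICI calculated under the Loewe additivity model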; assay type: cell-based; conditions: for INH MICc: C. albicans
Method: as §2

[7] = tested on: Cryptococcus deuterogattii; test: MIC/MFC broth microdilution (CLSI);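 further: broth microdilution per CLSI M27-Ed4. MFC is the lowest concentration yielding no colonies when MIC broths are subcultured onto SDA plates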
Method: as §1

[8] = tested on: Saccharomyces cerevisiae; test: checkerboard drug interaction (FICI, MICc); assay type: cell-based; set-up: INH MICc / INH MICc (ITR:INH) / INH MICc (KET:INH) / INH MICc (FLC:INH): unit not given beside the values;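 further: simplified diagonal checkerboard screen pairing antifungals with FPPS inhibitors, FICI calculated under the Loewe additivity model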
[9] = tested on: Saccharomyces cerevisiae; test: MIC/MFC broth microdilution (CLSI); assay type: cell-based; conditions: Saccharomyces cerevisiae S288c
Method: as §1

[10] = tested on: Candida albicans; test: MIC/MFC broth microdilution (CLSI); assay type: cell-based; conditions: Candida albicans SC5314
Method: as §1

[11] = tested on: Cryptococcus deuterogattii; test: checkerboard drug interaction (FICI, MICc);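 on all read-outs here: simplified diagonal checkerboard screen pairing antifungal drugs with FPPS inhibitors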; assay type: cell-based; conditions: for INH MICc: C. deuterogattii
Method: as §2

[12] = tested on: Trichophyton rubrum; test: checkerboard drug interaction (FICI, MICc); assay type: cell-based;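 further: simplified diagonal checkerboard screen pairing azole antifungals with FPPS inhibitors, FICI calculated under the Loewe additivity model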
Method: as §2

[13] = FLC:INH combination, MIC of the inhibitor in combination with FLC
[14] = ITR:INH combination, MIC of the inhibitor in combination with ITR
[15] = KET:INH combination, MIC of the inhibitor in combination with KET

CCCCCCCCCCn1cc[n+](CC(O)(P(=O)(O)O)P(=O)(O)O)c1 [10-ZOL, Decyl-zoledronate]
MFC [1]: 4 µg/mL | MIC [1]: 2 µg/mL | MIC / MEC [1]: 2 µg/mL | effect on azole MIC in combination ([2]; across all species tested): consistently reduced the MIC of the azole | antagonism with azole drugs ([2]; any of the azole drugs in any species tested): no antagonism | GM fungal MICc ([2]; geometric mean MIC in combination with azoles): 0.1 | MFC [3]: 2 µg/mL | MIC [3]: 1 µg/mL | MIC / MEC [3]: 1 µg/mL | INH MICc [4, 13]: 0.125 | INH MICc [4, 14]: 0.063 | INH MICc [4, 15]: 0.031 | bisphosphonate MICc ([4]; with 5FC): 0.125 | bisphosphonate MICc ([4]; with AMB): 0.25 | bisphosphonate MICc ([4]; with CAS): 0.25 | bisphosphonate MICc ([4]; with FLC): 0.125 | bisphosphonate MICc ([4]; with ITR): 0.063 | bisphosphonate MICc ([4]; with KET): 0.031 | bisphosphonate MICc ([4]; with VOR): 0.03125 | MFC ([5]; Cryptococcus neoformans): 2 µg/mL | MIC ([5]; Cryptococcus neoformans): 1 µg/mL | MIC / MEC ([5]; Cryptococcus neoformans H99): 0.5 µg/mL | INH MICc [6, 13]: 0.0625 | INH MICc [6, 14]: 0.25 | INH MICc [6, 15]: 0.125 | bisphosphonate MICc ([6]; with 5FC): 0.5 | bisphosphonate MICc ([6]; with AMB): 0.25 | bisphosphonate MICc ([6]; with CAS): 1 | bisphosphonate MICc ([6]; with FLC): 0.0625 | bisphosphonate MICc ([6]; with ITR): 0.25 | bisphosphonate MICc ([6]; with KET): 0.125 | bisphosphonate MICc ([6]; with VOR): 0.25 | MFC ([7]; Cryptococcus deuterogattii): 2 µg/mL | MIC ([7]; Cryptococcus deuterogattii): 1 µg/mL | MIC / MEC ([7]; Cryptococcus deuterogattii R265): 1 µg/mL | FICI ([8]; 5FC:10-ZOL): 2 | FICI ([8]; ITR:10-ZOL): 1 | FLC MICc ([8]; S. cerevisiae, FLC:INH combination, MIC of FLC in combination with the inhibitor): 1 | INH MICc ([8]; S. cerevisiae, FLC:INH combination, MIC of the inhibitor in combination with FLC): 0.5 | FICI ([8]; S. cerevisiae, ITR:INH combination): 1 | ITR MICc ([8]; S. cerevisiae, ITR:INH combination, MIC of ITR in combination with the inhibitor): 0.125 | INH MICc ([8]; S. cerevisiae, ITR:INH combination, MIC of the inhibitor in combination with ITR): 0.5 | KET MICc ([8]; S. cerevisiae, KET:INH combination, MIC of KET in combination with the inhibitor): 0.25 | INH MICc ([8]; S. cerevisiae, KET:INH combination, MIC of the inhibitor in combination with KET): 0.25 | bisphosphonate MICc ([8]; with 5FC): 1 | bisphosphonate MICc ([8]; with AMB): 0.25 | bisphosphonate MICc ([8]; with CAS): 0.063 | bisphosphonate MICc ([8]; with FLC): 0.5 | bisphosphonate MICc ([8]; with ITR): 0.5 | FICI ([8]; with ITR, Saccharomyces cerevisiae): 1.00 | bisphosphonate MICc ([8]; with KET): 0.25 | bisphosphonate MICc ([8]; with VOR): 0.25 | MFC [9]: 8 µg/mL | MIC [9]: 1 µg/mL | MIC / MEC [9]: 1 µg/mL | MFC [10]: 16 µg/mL | MIC [10]: 4 µg/mL | MIC / MEC [10]: 4 µg/mL | INH MICc [11, 13]: 0.125 | INH MICc [11, 14]: 0.125 | INH MICc [11, 15]: 0.063 | bisphosphonate MICc ([11]; with 5FC): 1 | bisphosphonate MICc ([11]; with AMB): 0.063 | bisphosphonate MICc ([11]; with CAS): 1 | bisphosphonate MICc ([11]; with FLC): 0.125 | bisphosphonate MICc ([11]; with ITR): 0.125 | bisphosphonate MICc ([11]; with KET): 0.063 | bisphosphonate MICc ([11]; with VOR): 0.063 | FICI ([12]; KET:10-ZOL): 0.5 | INH MICc (FLC:INH) ([12]; T. rubrum, MIC of the inhibitor in combination with fluconazole): 0.5 | INH MICc (ITR:INH) ([12]; T. rubrum, MIC of the inhibitor in combination with itraconazole): 0.5 | INH MICc (KET:INH) ([12]; T. rubrum, MIC of the inhibitor in combination with ketoconazole): 0.5 | FICI ([12]; VOR:10-ZOL): 0.5 | bisphosphonate MICc ([12]; with 5FC): 1 | bisphosphonate MICc ([12]; with AMB): 0.25 | bisphosphonate MICc ([12]; with CAS): 0.5
